This is an account of results in patent US11000033B2, “Ketone or oxime compound, and herbicide” (NISSAN CHEMICAL CORPORATION, priority 2014, dated 2021).

Each structure is given as a SMILES string.

Assay type in all cases: in vivo
In data set [1] the test system is Galium spurium. In words: Test Example 4: herbicidal effect by soil treatment (symbol Q). As to conditions: application herbicide amount 320 g/ha. In outline:
(§1)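 Seeds were sown in sterilized diluvial soil, covered with about 1.5 cm of soil, and the soil surface was sprayed with a water-diluted emulsion of the compound at a predetermined rate. Plants grew in a greenhouse at 25° C. to 30° C.; effects were scored visually 3 weeks after application.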

Data set [2] concerns Chenopodium album. Nature of the data set: Test Example 5: herbicidal effect by foliage application, plastic box (symbol O). The conditions noted are these: 320 g/ha, 3 weeks after application. In outline:
(§2)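 Leaf-applied emulsion, water-diluted to a preset herbicide dose, on two-week-old seedlings raised in a 25° C. to 30° C. greenhouse; injury rated at 3 weeks using earlier criteria.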

For data set [3], the system named is Stellaria media. In words: Test Example 5: herbicidal effect by foliage application, plastic box (symbol P). The conditions noted are these: 320 g/ha, 3 weeks after application. In outline:
as §2

Data set [4] concerns rice plant. In words: Test Example 5: effect on crop by foliage application, plastic box (symbol b). The conditions noted are these: 320 g/ha, 3 weeks after application. The essentials: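 Foliage-application test plants come from spot sowing in sterilized diluvial soil under a soil layer of about 1.5 cm, grown at 25° C. to 30° C. in a greenhouse.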
Data set [5] concerns Chenopodium album. In words: Test Example 4: herbicidal effect by soil treatment (symbol O). The conditions noted are these: for O: Chenopodium album, herbicidal effect grade: 320 g/ha. In outline:
as §1

Data set [6] relates to Veronica persica. Nature of the data set: Test Example 4: herbicidal effect by soil treatment (symbol R). The conditions noted are these: for R: Veronica persica, herbicidal effect grade: 320 g/ha. In outline:
as §1

Setting [7] is: application herbicide amount 320 g/ha.

As to `COCC(CC1CC(O)=C(c2c(C)cc(C)cc2C)C1=O)=NOC` (centres unmarked) [1-040], the “Q (Galium spurium) herbicidal effect grade” value in data set [1] is listed as 0 (Herbicidal ratio of 5% or lower (almost no effect)). Moreover, in data set [2], the “O: Chenopodium album, herbicidal effect grade” value is 0 (Herbicidal ratio of 5% or lower (almost no effect)). Moreover, the “P: Stellaria media, herbicidal effect grade” value in data set [3] is 0 (Herbicidal ratio of 5% or lower (almost no effect)). In addition, the “b: directly sowed rice plant, effect on crop grade” value in data set [4] is on record as 5 (Herbicidal ratio of 90% or more (almost completely withered)).

For the compound `CON=C(CC1CC(O)=C(c2c(C)cc(C)cc2C)C1=O)C1CC1` (centres unmarked) [1-046], in data set [1], the “Q (Galium spurium) herbicidal effect grade” value is 0 (Herbicidal ratio of 5% or lower (almost no effect)). Further, in data set [2], the “O: Chenopodium album, herbicidal effect grade” value is 2 (Herbicidal ratio of 20% or higher and lower than 40%). The “P: Stellaria media, herbicidal effect grade” value in data set [3] is 2 (Herbicidal ratio of 20% or higher and lower than 40%). Besides, in data set [4], the “b: directly sowed rice plant, effect on crop grade” value is 5 (Herbicidal ratio of 90% or more (almost completely withered)).

As to `CC(CC1CC(O)=C(c2c(C)cc(C)cc2C)C1=O)=NOCC1CC1` (centres unmarked) [1-024], the “Q (Galium spurium) herbicidal effect grade” value in data set [1] is 0 (Herbicidal ratio of 5% or lower (almost no effect)). Further, the “O: Chenopodium album, herbicidal effect grade” value in data set [2] is 1 (Herbicidal ratio of 5% or higher and lower than 20%). Besides, the “P: Stellaria media, herbicidal effect grade” value in data set [3] is 3 (Herbicidal ratio of 40% or higher and lower than 70%). In addition, the “b: directly sowed rice plant, effect on crop grade” value in data set [4] is on record as 5 (Herbicidal ratio of 90% or more (almost completely withered)).

In the case of `CON=C(C)CC1CC(OC(=O)COc2ccccc2)=C(c2c(C)cc(C)cc2C)C1=O` (centres unmarked) [1-043], the “Q (Galium spurium) herbicidal effect grade” value in data set [1] is 0 (Herbicidal ratio of 5% or lower (almost no effect)). In addition, the “O: Chenopodium album, herbicidal effect grade” value in data set [2] was 2 (Herbicidal ratio of 20% or higher and lower than 40%). For the same compound, the “P: Stellaria media, herbicidal effect grade” value in data set [3] is 4 (Herbicidal ratio of 70% or higher and lower than 90%). In addition, the “b: directly sowed rice plant, effect on crop grade” value in data set [4] is listed as 5 (Herbicidal ratio of 90% or more (almost completely withered)).

`CON=C(C)C(c1ccc(F)cc1)C1CC(O)=C(c2c(C)cc(C)cc2C)C1=O` (centres unmarked) [1-049]: in data set [1], the “Q (Galium spurium) herbicidal effect grade” value is on record as 0 (Herbicidal ratio of 5% or lower (almost no effect)). Further, the “O: Chenopodium album, herbicidal effect grade” value in data set [2] is given as 0 (Herbicidal ratio of 5% or lower (almost no effect)). Besides, in data set [3], the “P: Stellaria media, herbicidal effect grade” value was 0 (Herbicidal ratio of 5% or lower (almost no effect)). Further, the “b: directly sowed rice plant, effect on crop grade” value in data set [4] is given as 0 (Herbicidal ratio of 5% or lower (almost no effect)).

For `CON=C(C)CC1CC(OCC#C[Si](C)(C)C)=C(c2c(C)cc(C)cc2C)C1=O` (centres unmarked) [1-031], the “Q (Galium spurium) herbicidal effect grade” value in data set [1] was 0 (Herbicidal ratio of 5% or lower (almost no effect)). Also, the “O: Chenopodium album, herbicidal effect grade” value in data set [2] was 0 (Herbicidal ratio of 5% or lower (almost no effect)). Also, in data set [3], the “P: Stellaria media, herbicidal effect grade” value was 0 (Herbicidal ratio of 5% or lower (almost no effect)). Also, the “b: directly sowed rice plant, effect on crop grade” value in data set [4] is 3 (Herbicidal ratio of 40% or higher and lower than 70%).

On to `CC(CC1CC(O)=C(c2c(C)cc(C)cc2C)C1=O)=NOCc1ccccc1F` (centres unmarked) [1-026], for which the “Q (Galium spurium) herbicidal effect grade” value in data set [1] is reported as 0 (Herbicidal ratio of 5% or lower (almost no effect)). For the same compound, in data set [2], the “O: Chenopodium album, herbicidal effect grade” value is 3 (Herbicidal ratio of 40% or higher and lower than 70%). Moreover, in data set [3], the “P: Stellaria media, herbicidal effect grade” value was 1 (Herbicidal ratio of 5% or higher and lower than 20%). In addition, in data set [4], the “b: directly sowed rice plant, effect on crop grade” value is 5 (Herbicidal ratio of 90% or more (almost completely withered)).

With `CC(CC1CC(O)=C(c2c(C)cc(C)cc2C)C1=O)=NOCC(=O)N1CCOCC1` (centres unmarked) [1-025], the “Q (Galium spurium) herbicidal effect grade” value in data set [1] is on record as 0 (Herbicidal ratio of 5% or lower (almost no effect)). Further, the “O: Chenopodium album, herbicidal effect grade” value in data set [2] was 4 (Herbicidal ratio of 70% or higher and lower than 90%). The “P: Stellaria media, herbicidal effect grade” value in data set [3] is 4 (Herbicidal ratio of 70% or higher and lower than 90%). The “b: directly sowed rice plant, effect on crop grade” value in data set [4] was 4 (Herbicidal ratio of 70% or higher and lower than 90%).

`CON=C(C)CC1CC(OC(=O)COc2ccc(Br)cc2)=C(c2c(C)cc(C)cc2C)C1=O` (centres unmarked) [1-081]: the “O: Chenopodium album, herbicidal effect grade” value in data set [5] is recorded as 0 (Herbicidal ratio of 5% or lower (almost no effect)). Besides, the “R: Veronica persica, herbicidal effect grade” value in data set [6] is recorded as 0 (Herbicidal ratio of 5% or lower (almost no effect)). The “O: Chenopodium album, herbicidal effect (criteria 0-5)” value (“O: Chenopodium album … (criteria 0-5)” for short) in data set [2] is 3 (Herbicidal ratio of 40% or higher and lower than 70%). The “P: Stellaria media, herbicidal effect (criteria 0-5)” value (“P: Stellaria media … (criteria 0-5)” below) in data set [3] is 0 (Herbicidal ratio of 5% or lower (almost no effect)). Further, the “b: directly sowed rice plant, effect on crop (criteria 0-5)” value in data set [4] was 5 (Herbicidal ratio of 90% or more (almost completely withered)).

Regarding `CCCCCCCON=C(C)CC1CC(O)=C(c2c(C)cc(C)cc2C)C1=O` (centres unmarked) [1-054], in data set [5] (setting [7]), the “O (Chenopodium album) herbicidal effect grade” value is on record as 0 (Herbicidal ratio of 5% or lower (almost no effect)). Moreover, the “R (Veronica persica) herbicidal effect grade” value in data set [6] (setting [7]) is 0 (Herbicidal ratio of 5% or lower (almost no effect)). Further, the “O: Chenopodium album, herbicidal effect grade” value in data set [2] is given as 0 (Herbicidal ratio of 5% or lower (almost no effect)). Moreover, the “P: Stellaria media, herbicidal effect grade” value in data set [3] is on record as 0 (Herbicidal ratio of 5% or lower (almost no effect)). Besides, the “b: directly sowed rice plant, effect on crop grade” value in data set [4] is 4 (Herbicidal ratio of 70% or higher and lower than 90%).

Take `CON=C(C)CC1CC(OC(=O)COc2ccc3ccccc3c2)=C(c2c(C)cc(C)cc2C)C1=O` (centres unmarked) [1-083]: in data set [5], the “O: Chenopodium album, herbicidal effect grade” value was 0 (Herbicidal ratio of 5% or lower (almost no effect)). In data set [6], the “R: Veronica persica, herbicidal effect grade” value is 0 (Herbicidal ratio of 5% or lower (almost no effect)). In addition, the “O: Chenopodium album … (criteria 0-5)” value in data set [2] was 0 (Herbicidal ratio of 5% or lower (almost no effect)). Further, the “P: Stellaria media … (criteria 0-5)” value in data set [3] was 4 (Herbicidal ratio of 70% or higher and lower than 90%). Besides, in data set [4], the “b: directly sowed rice plant, effect on crop (criteria 0-5)” value is recorded as 5 (Herbicidal ratio of 90% or more (almost completely withered)).

Take `CON=C(C)CC1CC(OC(=O)COc2ccc(C=O)cc2)=C(c2c(C)cc(C)cc2C)C1=O` (centres unmarked) [1-079]: in data set [5], the “O: Chenopodium album, herbicidal effect grade” value is recorded as 0 (Herbicidal ratio of 5% or lower (almost no effect)). Moreover, in data set [6], the “R: Veronica persica, herbicidal effect grade” value was 0 (Herbicidal ratio of 5% or lower (almost no effect)). Moreover, the “O: Chenopodium album … (criteria 0-5)” value in data set [2] is 0 (Herbicidal ratio of 5% or lower (almost no effect)). For the same compound, the “P: Stellaria media … (criteria 0-5)” value in data set [3] was 1 (Herbicidal ratio of 5% or higher and lower than 20%). Also, the “b: directly sowed rice plant, effect on crop (criteria 0-5)” value in data set [4] is given as 5 (Herbicidal ratio of 90% or more (almost completely withered)).

As for `CCCC=CC(=O)OC1=C(c2c(C)cc(C)cc2C)C(=O)C(CC(C)=NOC)C1` (centres unmarked) [1-090], in data set [5], the “O: Chenopodium album, herbicidal effect grade” value is reported as 0 (Herbicidal ratio of 5% or lower (almost no effect)). The “R: Veronica persica, herbicidal effect grade” value in data set [6] is on record as 0 (Herbicidal ratio of 5% or lower (almost no effect)). Moreover, the “O: Chenopodium album … (criteria 0-5)” value in data set [2] was 2 (Herbicidal ratio of 20% or higher and lower than 40%). Further, in data set [3], the “P: Stellaria media … (criteria 0-5)” value is 3 (Herbicidal ratio of 40% or higher and lower than 70%). In addition, in data set [4], the “b: directly sowed rice plant, effect on crop (criteria 0-5)” value was 5 (Herbicidal ratio of 90% or more (almost completely withered)).

With `CON=C(CC1CC(O)=C(c2c(C)cc(Br)cc2C)C1=O)C1CC1` (centres unmarked) [9-002], the “Herbicidal effect grade, O: Chenopodium album” value in data set [5] (setting [7]) is 0 (Herbicidal ratio of 5% or lower (almost no effect)). In addition, in data set [6] (setting [7]), the “Herbicidal effect grade, R: Veronica persica” value is listed as 0 (Herbicidal ratio of 5% or lower (almost no effect)). Further, in data set [2], the “O: Chenopodium album, herbicidal effect grade” value is on record as 0 (Herbicidal ratio of 5% or lower (almost no effect)). Moreover, in data set [3], the “P: Stellaria media, herbicidal effect grade” value was 0 (Herbicidal ratio of 5% or lower (almost no effect)). The “b: directly sowed rice plant, effect on crop grade” value in data set [4] was 5 (Herbicidal ratio of 90% or more (almost completely withered)).

Turning to `CON=C(C)CC1CC(OC(=O)C2=CCCC2)=C(c2c(C)cc(C)cc2C)C1=O` (centres unmarked) [1-088], in data set [5], the “O: Chenopodium album, herbicidal effect grade” value is 0 (Herbicidal ratio of 5% or lower (almost no effect)). For the same compound, in data set [6], the “R: Veronica persica, herbicidal effect grade” value is 0 (Herbicidal ratio of 5% or lower (almost no effect)). Besides, the “O: Chenopodium album … (criteria 0-5)” value in data set [2] was 2 (Herbicidal ratio of 20% or higher and lower than 40%). In data set [3], the “P: Stellaria media … (criteria 0-5)” value is 3 (Herbicidal ratio of 40% or higher and lower than 70%). Further, in data set [4], the “b: directly sowed rice plant, effect on crop (criteria 0-5)” value is 5 (Herbicidal ratio of 90% or more (almost completely withered)).

For `CC(=O)CC1CC(O)=C(c2c(C)cc(-c3ccc(OC(F)(F)F)cc3)cc2C)C1=O` (centres unmarked) [7-016], in data set [5] (setting [7]), the “Herbicidal effect grade, O: Chenopodium album” value is reported as 0 (Herbicidal ratio of 5% or lower (almost no effect)). The “Herbicidal effect grade, R: Veronica persica” value in data set [6] (setting [7]) was 0 (Herbicidal ratio of 5% or lower (almost no effect)). Besides, the “O: Chenopodium album, herbicidal effect (criteria of Test Example 1)” value in data set [2] was 0 (Herbicidal ratio of 5% or lower (almost no effect)). Besides, the “P: Stellaria media, herbicidal effect (criteria of Test Example 1)” value in data set [3] is reported as 0 (Herbicidal ratio of 5% or lower (almost no effect)). Further, in data set [4], the “b: directly sowed rice plant, effect on crop (criteria of Test Example 1)” value is given as 0 (Herbicidal ratio of 5% or lower (almost no effect)).

As for `CON=C(C)CC1CC(OC(=O)CCC2CCCCC2)=C(c2c(C)cc(C)cc2C)C1=O` (centres unmarked) [1-035], in data set [1], the “Q (Galium spurium) herbicidal effect grade” value is 0 (Herbicidal ratio of 5% or lower (almost no effect)). Besides, the “b: directly sowed rice plant, effect on crop grade” value in data set [4] was 5 (Herbicidal ratio of 90% or more (almost completely withered)).
